Publication PMC4052943 (BioMed Research International, 2014)
Like-named read-outs stand apart in the source and are kept apart here.

Key:
[1] = tested on: Salmonella typhimurium TA100; experiment: Ames antimutagenicity assay (preincubation);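 note: compound and mutagen preincubated together 30 min at 37°C before bacteria added, then plates incubated 48 h at 37°C, inhibition relative to mutagen-alone revertants after subtracting the negative control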
Experimental: (§1) In the preincubation experiment, test compounds and mutagen, each having a volume of 0.1 mL of varying concentrations, were preincubated at 37°C for 30 min and then 0.1 mL of 1 × 10^7 CFU/mL density of the bacterial culture was added, followed by the addition of 2.5 mL of top agar at 45°C (containing 0.5% NaCl and 0.6% agar) supplemented with 0.5 mM histidine-biotin. […] The combined solutions were vortexed and poured onto minimal glucose plates (40% glucose solution and Vogel Bonner medium). The plates were incubated at 37°C for 48 h and the numbers of histidine-independent revertants colonies were scored.
(§2) Survival of the bacteria was routinely monitored for each experiment. Parallel controls were run with compounds alone at all concentrations to test the possible toxicity. The concentrations of the test samples for investigating the antimutagenicity were 50, 100, 200, and 500 μM. […] All the test samples and mutagens were dissolved in DMSO (final conc., 0.01%). […] Plates were set up in triplicate for each concentration and the entire experiment was repeated three times. Inhibition of mutagenicity was expressed as percentage decrease of reverse mutation and calculated as (1) Percent inhibition=[(a−b)/(a−c)]×100, where a = number of histidine revertants induced by mutagen, b = number of histidine revertants induced by mutagen in the presence of test compound, and c = number of revertants induced in negative control.

[2] = tested on: Salmonella typhimurium TA102; experiment: Ames antimutagenicity assay (preincubation); conditions: for inhibition at 50 µM / inhibition at 100 µM / inhibition at 250 µM / inhibition at 500 µM: Salmonella enterica, TYPHIMURIUM;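 for all read-outs here: compound and mutagen preincubated 30 min at 37 °C before adding bacteria, His+ revertant colonies counted after 48 h at 37 °C, inhibition relative to mutagen-alone minus negative-control revertants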
Experimental: as §1, §2

[3] = tested on: Salmonella typhimurium strains TA97a, TA98, TA100, and TA102; experiment: Ames test, statements over all tester strains; conditions: 50–500 μM
Experimental: as §1, §2

Compound: O=c1oc2c(O)c(O)cc3c(=O)oc4c(O)c(O)cc1c4c23 [Ellagic acid, ellagic acid]
- Number of His+ revertants colonies/plate ([1]; TA 100, 50 μM + 2AF, S9): 426.0 ± 18.6 colonies/plate
- Number of His+ revertants colonies/plate ([1]; TA 100, 50 μM + BP, S9): 580.3 ± 25.6 colonies/plate
- Number of His+ revertants colonies/plate ([1]; TA 100, 50 μM + MMS, no S9): 900.3 ± 16.3 colonies/plate
- Number of His+ revertants colonies/plate ([1]; TA 100, 50 μM + NaN3, no S9): 340.7 ± 9.4 colonies/plate
- Number of His+ revertants colonies/plate ([1]; TA 100, 100 μM + 2AF, S9): 350.0 ± 12.8 colonies/plate
- Number of His+ revertants colonies/plate ([1]; TA 100, 100 μM + BP, S9): 472.3 ± 19.4 colonies/plate
- Number of His+ revertants colonies/plate ([1]; TA 100, 100 μM + MMS, no S9): 754.0 ± 8.2 colonies/plate
- Number of His+ revertants colonies/plate ([1]; TA 100, 100 μM + NaN3, no S9): 312.3 ± 8.4 colonies/plate
- Number of His+ revertants colonies/plate ([1]; TA 100, 250 μM + BP, S9): 336.0 ± 17.6 colonies/plate
- Number of His+ revertants colonies/plate ([1]; TA 100, 250 μM + MMS, no S9): 598.7 ± 14.2 colonies/plate
- Number of His+ revertants colonies/plate ([1]; TA 100, 250 μM + NaN3, no S9): 266.0 ± 7.8 colonies/plate
- Number of His+ revertants colonies/plate ([1]; TA 100, 500 μM + 2AF, S9): 240.7 ± 9.8 colonies/plate
- Number of His+ revertants colonies/plate ([1]; TA 100, 500 μM + BP, S9): 245.7 ± 14.4 colonies/plate
- Number of His+ revertants colonies/plate ([1]; TA 100, 500 μM + MMS, no S9): 420.3 ± 6.9 colonies/plate
- Number of His+ revertants colonies/plate ([1]; TA 100, 500 μM + NaN3, no S9): 210.3 ± 12.4 colonies/plate
- inhibition at 50 µM ([2]; read-out: % inhibition of mutagenicity, TA 102, 50 μM + 2AF, S9): 17.5%
- inhibition at 50 µM ([2]; read-out: % inhibition of mutagenicity, TA 102, 50 μM + BP, S9): 11.5%
- inhibition at 50 µM ([2]; read-out: % inhibition of mutagenicity, TA 102, 50 μM + MMS, no S9): 18.5%
- inhibition at 50 µM ([2]; read-out: % inhibition of mutagenicity, TA 102, 50 μM + NaN3, no S9): 21.9%
- inhibition at 100 µM ([2]; read-out: % inhibition of mutagenicity, TA 102, 100 μM + 2AF, S9): 45.9%
- inhibition at 100 µM ([2]; read-out: % inhibition of mutagenicity, TA 102, 100 μM + BP, S9): 23.6%
- inhibition at 100 µM ([2]; read-out: % inhibition of mutagenicity, TA 102, 100 μM + MMS, no S9): 30.3%
- inhibition at 100 µM ([2]; read-out: % inhibition of mutagenicity, TA 102, 100 μM + NaN3, no S9): 40.3%
- inhibition at 250 µM ([2]; read-out: % inhibition of mutagenicity, TA 102, 250 μM + BP, S9): 46.6%
- inhibition at 250 µM ([2]; read-out: % inhibition of mutagenicity, TA 102, 250 μM + MMS, no S9): 44.3%
- inhibition at 250 µM ([2]; read-out: % inhibition of mutagenicity, TA 102, 250 μM + NaN3, no S9): 50.7%
- inhibition at 500 µM ([2]; read-out: % inhibition of mutagenicity, TA 102, 500 μM + 2AF, S9): 89%
- inhibition at 500 µM ([2]; read-out: % inhibition of mutagenicity, TA 102, 500 μM + BP, S9): 83.7%
- inhibition at 500 µM ([2]; read-out: % inhibition of mutagenicity, TA 102, 500 μM + MMS, no S9): 72.4%
- inhibition at 500 µM ([2]; read-out: % inhibition of mutagenicity, TA 102, 500 μM + NaN3, no S9): 62.3%
- Number of His+ revertants colonies/plate ([2]; TA 102, 50 μM + 2AF, S9): 1276.0 ± 38.0 colonies/plate
- Number of His+ revertants colonies/plate ([2]; TA 102, 50 μM + BP, S9): 653.0 ± 34.7 colonies/plate
- Number of His+ revertants colonies/plate ([2]; TA 102, 50 μM + MMS, no S9): 1071.0 ± 16.7 colonies/plate
- Number of His+ revertants colonies/plate ([2]; TA 102, 50 μM + NaN3, no S9): 345.3 ± 26.7 colonies/plate
- Number of His+ revertants colonies/plate ([2]; TA 102, 100 μM + 2AF, S9): 924.0 ± 25.3 colonies/plate
- Number of His+ revertants colonies/plate ([2]; TA 102, 100 μM + BP, S9): 595.0 ± 24.1 colonies/plate
- Number of His+ revertants colonies/plate ([2]; TA 102, 100 μM + MMS, no S9): 956.0 ± 19.6 colonies/plate
- Number of His+ revertants colonies/plate ([2]; TA 102, 100 μM + NaN3, no S9): 328.0 ± 28.2 colonies/plate
- Number of His+ revertants colonies/plate ([2]; TA 102, 250 μM + BP, S9): 514.0 ± 21.4 colonies/plate
- Number of His+ revertants colonies/plate ([2]; TA 102, 250 μM + MMS, no S9): 810.0 ± 19.1 colonies/plate
- Number of His+ revertants colonies/plate ([2]; TA 102, 250 μM + NaN3, no S9): 308.0 ± 23.6 colonies/plate
- Number of His+ revertants colonies/plate ([2]; TA 102, 500 μM + 2AF, S9): 431.0 ± 13.6 colonies/plate
- Number of His+ revertants colonies/plate ([2]; TA 102, 500 μM + BP, S9): 366.0 ± 25.0 colonies/plate
- Number of His+ revertants colonies/plate ([2]; TA 102, 500 μM + MMS, no S9): 506.0 ± 13.5 colonies/plate
- Number of His+ revertants colonies/plate ([2]; TA 102, 500 μM + NaN3, no S9): 288.3 ± 19.2 colonies/plate
- toxicity to Salmonella typhimurium strains ([3]; absence of S9): No toxicity
- maximum inhibition of mutagenicity ([3]; against sodium azide, MMS, BP, 2AF): up to 90%
